For one assay, the species on record is Homo sapiens. Nature of the assay: Inhibition of C-terminal His6-tagged human recombinat FTase expressed in Escherichia coli BL21 RIL (DE3) cells using Dansyl-GCVLS peptide and farnesyl pyrophosphate as substrate at 100 uM measured for 15 mins by fluorimetric analysis relative to control.
The subject of another assay is K562. Briefly: Cytostatic activity against human K562 cells assessed as growth inhibition at 10 uM incubated for 48 hrs by sulforhodamine B assay relative to control. The format is functional. Particulars: K562, 48 h, read-out: GI.
The next assay concerns CCRF-CEM. Nature of the assay: Cytostatic activity against human CCRF-CEM cells assessed as growth inhibition at 10 uM incubated for 48 hrs by sulforhodamine B assay relative to control. The class given is functional. The following applies: read-out: GI.
In a further assay the test system is NCI-H522. Briefly: Cytostatic activity against human NCI-H522 cells assessed as growth inhibition at 10 uM incubated for 48 hrs by sulforhodamine B assay relative to control. The class given is functional. The following applies: NCI-H522, 48 h, read-out: GI.
For the next assay, the system named is KM12. Briefly: Cytostatic activity against human KM12 cells assessed as growth inhibition at 10 uM incubated for 48 hrs by sulforhodamine B assay relative to control. The format is functional. Particulars: KM12, 48 h, read-out: GI. A general note: Sulforhodamine B stains cellular protein and so reports cell mass.
The next assay relates to SW-620. Briefly: Cytostatic activity against human SW620 cells assessed as growth inhibition at 10 uM incubated for 48 hrs by sulforhodamine B assay relative to control. The class given is functional. Particulars: for inhibition of growth at 10 µM: SW-620, 48 h, read-out: GI.
The test system of a further assay is HCT-116. Nature of the assay: Cytostatic activity against human HCT116 cells assessed as growth inhibition at 10 uM incubated for 48 hrs by sulforhodamine B assay relative to control. The class given is functional. The following applies: for inhibition of growth at 10 µM: HCT-116, 48 h, read-out: GI.
For a further assay, the system named is LOX IMVI. Nature of the assay: Cytostatic activity against human LOXIMVI cells assessed as growth inhibition at 10 uM incubated for 48 hrs by sulforhodamine B assay relative to control. The format is functional. Particulars: for inhibition of growth at 10 µM: read-out: GI.
For a further assay, the system named is OVCAR-3. Nature of the assay: Cytostatic activity against human OVCAR3 cells assessed as growth inhibition at 10 uM incubated for 48 hrs by sulforhodamine B assay relative to control. The following applies: for inhibition of growth at 10 µM: OVCAR-3, 48 h, read-out: GI. The class given is functional.
In the next assay the test system is MCF7. Briefly: Cytostatic activity against human MCF7 cells assessed as growth inhibition at 10 uM incubated for 48 hrs by sulforhodamine B assay relative to control. The class given is functional. The following applies: MCF7, 48 h, read-out: GI.
Assay [1] in a line: Inhibition of C-terminal His6-tagged human recombinat FTase expressed in Escherichia coli BL21 RIL (DE3) cells using Dansyl-GCVLS peptide and farnesyl pyrophosphate as substrate measured for 15 mins by fluorimetric analysis.

Activity calls are given as the source filed them. No cut-off for these calls is given here.

Broadly, the inhibition is the percentage by which the read-out fell short of the control. One may read the IC50 as the concentration at which inhibition is half-maximal.

Regarding `O=C(/C=C/c1ccc(Cl)nc1)c1ccc(Cl)c(Cl)c1`, the inhibition in the assay filed under Homo sapiens turned out to be 54%. Also, the inhibition of growth at 10 µM in the assay with K562 was found to be 48.3%; in the assay on CCRF-CEM, 26.6%; in the assay on NCI-H522 it was 45.8%; in the assay on KM12 it was 44.4%; with SW-620, 40.1%; with HCT-116, 55.1%. Moreover, the inhibition of growth at 10 µM in the assay with LOX IMVI was 37.6%; in the assay on OVCAR-3 it was 43.5%; in the assay on MCF7 it was 66.4%.
In the case of `CCOc1ccc([C@]2(O)C[C@H](c3cccs3)[C@@H](C(=O)c3ccc(Cl)nc3)[C@H](c3cccs3)[C@H]2C(=O)c2ccc(Cl)nc2)cn1`, the inhibition in the assay filed under Homo sapiens came to 24%.
Consider `O=C(CC(CC(=O)c1ccc(Cl)nc1)c1ccc(Cl)nc1)c1ccc(Cl)nc1`, for which the inhibition in the assay listed under Homo sapiens came out at 4%.
In the case of `O=C(/C=C/c1ccc(Cl)c(Cl)c1)c1ccc(Cl)cc1Cl`, the inhibition in the assay filed under Homo sapiens was determined as 53%.
The same measure, in the same setting: with `O=C(CC(CC(=O)c1ccc(Cl)nc1)c1cccs1)c1ccc(Cl)nc1` the figure was 19%.
On to `O=C(/C=C/c1ccc(Cl)cc1Cl)c1cccs1`, for which the inhibition in the assay listed under Homo sapiens was found to be 84%. Moreover, the IC50 in assay [1] was 25.8 µM.
In the same order, the values of `O=C(/C=C/c1cccs1)c1cccs1` are 100% and 12 µM.
In the case of `O=C(/C=C/c1ccc(Cl)nc1)c1ccc(Cl)nc1`, the inhibition in the assay listed under Homo sapiens turned out to be 26%. For the same compound, the inhibition of growth at 10 µM came to 6.1% with K562; 3.1% in the assay on CCRF-CEM; 5.3% with NCI-H522; 1% in the assay with KM12; 8.8% in the assay with MCF7. Also, the “growth inhibition (GI)” value in the assay with SW-620, with HCT-116, in the assay with LOX IMVI and in the assay with OVCAR-3 was “inactive” each time.
As for `O=C(/C=C/c1cccs1)c1ccc(Cl)cc1Cl`, the inhibition in the assay filed under Homo sapiens was determined as 70%. Besides, in assay [1], the half-inhibitory concentration (IC50) came out at 20.8 µM.
Consider `CCCCCCCCCCCCCC/C(C(=O)O)=C(\C)C(=O)O` [CHAETOMELLIC ACID A], for which the inhibition in the assay filed under Homo sapiens was found to be 100%. In [1], the IC50 is 0.18 µM.
Regarding `O=C(/C=C/c1ccc(Cl)nc1)c1cccs1`, in the assay filed under Homo sapiens, the inhibition was 28%. The inhibition of growth at 10 µM was found to be 65.8% with K562; 38.6% in the assay on CCRF-CEM; 37.2% with NCI-H522; 57.8% in the assay with KM12; 47.6% with SW-620; 35.5% with HCT-116. For the same compound, the figures for the inhibition of growth at 10 µM in the assay with LOX IMVI, in the assay on OVCAR-3 and in the assay with MCF7 were 85%, 45.8% and 84.3%, respectively.
Consider `CCOc1ccc(C(=O)/C=C/c2cccs2)cn1`, for which the inhibition in the assay filed under Homo sapiens stood at 86%. The IC50 in [1] worked out at 24.9 µM.
In the same order, the values of `O=C(CC(O)c1cccs1)c1cccs1` (racemic) are 86% and 0.6 µM.
`CCOC(=O)c1cc(C(=O)/C=C/c2ccc3c(c2)Sc2ccccc2N3C)n2ccccc12`: the IC50 in assay [1] was determined as 0.009 µM.
Take `O=C(/C=C/c1ccc(Cl)cc1Cl)c1ccc(Cl)cc1Cl`: the inhibition in the assay filed under Homo sapiens was found to be 69%. Also, the IC50 in [1] amounted to 38.7 µM.
As to `O=C(/C=C/c1ccc(Cl)c(Cl)c1)c1ccc(Cl)nc1`, the inhibition in the assay listed under Homo sapiens amounted to 22%. Besides, the inhibition of growth at 10 µM in the assay with K562 is 25.3%; in the assay with CCRF-CEM, 15.2%; in the assay on NCI-H522, 17%; in the assay on KM12 it was 32.4%; in the assay on SW-620 it was 17.6%; with HCT-116, 19.3%. Besides, the inhibition of growth at 10 µM with LOX IMVI came out at 21.9%; in the assay with OVCAR-3 it was 11.2%; in the assay on MCF7, 69.8%.
For `Cn1cncc1[C@@](N)(c1ccc(Cl)cc1)c1ccc2c(c1)c(-c1cccc(Cl)c1)cc(=O)n2C` [TIPIFARNIB], the IC50 in assay [1] stood at 0.0079 µM.

For the origin of these results see ChEMBL document CHEMBL4619725, “Ultrasounds-mediated 10-seconds synthesis of chalcones as potential farnesyltransferase inhibitors” (Bioorg Med Chem Lett, 2020).
